Data as given in the NIST ThermoML archive (doi:10.1016/j.jct.2018.12.036).
± gives the expanded uncertainty stated by the source.

Settings: Plate method

| Structure (SMILES) | surface tension liquid-gas (293.15 K) [mN/m] | surface tension liquid-gas (298.15 K) [mN/m] | surface tension liquid-gas (303.15 K) [mN/m] | surface tension liquid-gas (308.15 K) [mN/m] | surface tension liquid-gas (313.15 K) [mN/m] | surface tension liquid-gas (318.15 K) [mN/m] | surface tension liquid-gas (323.15 K) [mN/m] |
| --- | --- | --- | --- | --- | --- | --- | --- |
| CCCC[n+]1ccn(C)c1.O=S(=O)([N-]S(=O)(=O)C(F)(F)F)C(F)(F)F | 33.29 ± 0.43 | 33.07 ± 0.43 | 32.88 ± 0.43 | 32.67 ± 0.43 | 32.49 ± 0.43 | 32.29 ± 0.43 | 32.11 ± 0.43 |
| CCCCn1cc[n+](C)c1.F[B-](F)(F)F [1-butyl-3-methylimidazolium tetrafluoroborate] | 44.75 ± 0.46 | 44.52 ± 0.46 | 44.16 ± 0.46 | 43.95 ± 0.46 | 43.63 ± 0.46 | 43.34 ± 0.46 | 42.98 ± 0.45 |
| CCCCn1cc[n+](C)c1.F[P-](F)(F)(F)(F)F [1-butyl-3-methylimidazolium hexafluorophosphate] | 44.56 ± 0.46 | 44.32 ± 0.46 | 44.11 ± 0.46 | 43.88 ± 0.46 | 43.63 ± 0.46 | 43.42 ± 0.46 | 43.18 ± 0.45 |
